This passage reports inhibition and Competition % results from patent publication US20120270237A9, “METHODS FOR THE IDENTIFICATION OF KINASE INTERACTING MOLECULES AND FOR THE PURIFICATION OF KINASE PROTEINS” (Cellzone AG, priority 2009, published 2012).

Broadly, the inhibition is the percentage by which the read-out fell short of the control. Read a high inhibition as a response far below the control.

Assay in all cases: Kinobeads competition binding, L-363 cell lysate
What all share (design): endogenous in cells
What all share (conditions): 10 μM free compound, L-363 lysate

In assay [1] the target is CaMK2g (Homo sapiens, UniProt Q13555). On the procedure: (§1) To one aliquot of cell lysate 10 μM of the free compound (FIG. 3, CZC31326) was added and allowed to bind to proteins in the lysate. Then the affinity matrix with the immobilized compound was added to capture proteins that were not interacting with the previously added free compound. Beads were separated from the lysate and bead bound proteins were eluted in SDS sample buffer and subsequently separated by SDS-Polyacrylamide gel electrophoresis (FIG. 8). Suitable gel bands were cut out and subjected to in-gel proteolytic digestion with trypsin. The second lysate aliquot was processed identically, however no free compound was added (DMSO solvent control). Peptides originating from samples 1 and 2 were labeled with iTRAQ reagents (iTRAQ 114 and iTRAQ 117) and the combined samples were analyzed with a nano-flow liquid chromatography system coupled online to a tandem mass spectrometer (LC-MS/MS) experiment followed by iTRAQ reporter ion quantification in the MS/MS spectra as described in Example 2.
(§2) For this experiment the human plasma cell leukaemia line L-363 was used (German Collection of Microorganisms and Cell Cultures, DSMZ number ACC49, Braunschweig, Germany). Cells were treated for three hours with 20 μM of the proteasome inhibitor MG132 (Z-Leu-Leu-Leu-al, Sigma C2211) prior to cell harvesting.

Assay [2] concerns the target TYK2 (Homo sapiens, UniProt P29597). As to the method:
as §1, §2

For assay [3], the target named is T1, MAP3K5 (Homo sapiens, UniProt Q99683).
T1 sequence (Q99683 1-1374): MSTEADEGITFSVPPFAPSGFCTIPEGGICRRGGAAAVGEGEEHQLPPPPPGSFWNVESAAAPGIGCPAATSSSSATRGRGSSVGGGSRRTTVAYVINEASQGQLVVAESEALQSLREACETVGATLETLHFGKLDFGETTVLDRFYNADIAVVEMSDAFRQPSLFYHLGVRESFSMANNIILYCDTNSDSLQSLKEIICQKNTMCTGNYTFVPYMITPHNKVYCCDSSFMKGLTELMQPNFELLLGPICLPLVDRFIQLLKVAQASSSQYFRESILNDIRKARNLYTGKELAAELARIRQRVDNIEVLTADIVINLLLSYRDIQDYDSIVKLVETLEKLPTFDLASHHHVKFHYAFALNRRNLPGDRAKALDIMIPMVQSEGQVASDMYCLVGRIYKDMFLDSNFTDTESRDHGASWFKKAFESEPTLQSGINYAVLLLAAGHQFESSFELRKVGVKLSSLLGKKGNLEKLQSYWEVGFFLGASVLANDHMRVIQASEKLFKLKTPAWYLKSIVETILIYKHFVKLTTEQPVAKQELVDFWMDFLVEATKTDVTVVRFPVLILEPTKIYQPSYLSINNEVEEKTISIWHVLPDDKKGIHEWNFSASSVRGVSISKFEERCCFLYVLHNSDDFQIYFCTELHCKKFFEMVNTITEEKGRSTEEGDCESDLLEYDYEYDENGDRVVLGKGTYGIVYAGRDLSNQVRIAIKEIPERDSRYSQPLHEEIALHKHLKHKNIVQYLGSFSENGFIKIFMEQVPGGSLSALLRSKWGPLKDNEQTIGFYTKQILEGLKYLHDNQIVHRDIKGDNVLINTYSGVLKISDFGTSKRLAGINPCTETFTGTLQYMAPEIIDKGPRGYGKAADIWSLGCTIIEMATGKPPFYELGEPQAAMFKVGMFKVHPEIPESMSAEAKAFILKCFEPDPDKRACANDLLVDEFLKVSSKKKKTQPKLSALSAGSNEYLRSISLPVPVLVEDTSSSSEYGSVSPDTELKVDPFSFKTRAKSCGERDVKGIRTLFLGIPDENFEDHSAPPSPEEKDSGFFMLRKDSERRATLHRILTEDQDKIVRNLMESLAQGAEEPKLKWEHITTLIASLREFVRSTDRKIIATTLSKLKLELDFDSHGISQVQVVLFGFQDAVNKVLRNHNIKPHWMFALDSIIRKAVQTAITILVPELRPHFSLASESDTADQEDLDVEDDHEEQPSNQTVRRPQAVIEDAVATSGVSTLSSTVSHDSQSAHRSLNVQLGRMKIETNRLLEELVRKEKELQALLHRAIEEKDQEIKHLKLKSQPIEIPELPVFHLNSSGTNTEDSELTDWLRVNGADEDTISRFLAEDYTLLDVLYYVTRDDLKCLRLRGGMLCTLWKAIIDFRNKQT
As to the method: as §1, §2

Assay [4] has as its target T2, MAP2K5 (Homo sapiens, UniProt Q13163).
T2 sequence (Q13163 1-448): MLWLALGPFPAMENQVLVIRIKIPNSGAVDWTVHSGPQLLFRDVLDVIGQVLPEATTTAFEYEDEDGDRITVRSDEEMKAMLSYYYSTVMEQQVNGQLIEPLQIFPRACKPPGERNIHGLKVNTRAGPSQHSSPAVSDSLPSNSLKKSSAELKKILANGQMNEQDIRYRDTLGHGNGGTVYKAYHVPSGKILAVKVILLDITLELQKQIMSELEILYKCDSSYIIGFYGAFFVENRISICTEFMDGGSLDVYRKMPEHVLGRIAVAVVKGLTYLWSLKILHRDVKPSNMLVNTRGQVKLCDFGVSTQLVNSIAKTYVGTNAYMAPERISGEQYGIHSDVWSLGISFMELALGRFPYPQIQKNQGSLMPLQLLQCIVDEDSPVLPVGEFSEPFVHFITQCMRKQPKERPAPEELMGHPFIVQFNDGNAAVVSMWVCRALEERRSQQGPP
As to the method:
as §1, §2

CaMK2g, sequence (Q13555 whole entry): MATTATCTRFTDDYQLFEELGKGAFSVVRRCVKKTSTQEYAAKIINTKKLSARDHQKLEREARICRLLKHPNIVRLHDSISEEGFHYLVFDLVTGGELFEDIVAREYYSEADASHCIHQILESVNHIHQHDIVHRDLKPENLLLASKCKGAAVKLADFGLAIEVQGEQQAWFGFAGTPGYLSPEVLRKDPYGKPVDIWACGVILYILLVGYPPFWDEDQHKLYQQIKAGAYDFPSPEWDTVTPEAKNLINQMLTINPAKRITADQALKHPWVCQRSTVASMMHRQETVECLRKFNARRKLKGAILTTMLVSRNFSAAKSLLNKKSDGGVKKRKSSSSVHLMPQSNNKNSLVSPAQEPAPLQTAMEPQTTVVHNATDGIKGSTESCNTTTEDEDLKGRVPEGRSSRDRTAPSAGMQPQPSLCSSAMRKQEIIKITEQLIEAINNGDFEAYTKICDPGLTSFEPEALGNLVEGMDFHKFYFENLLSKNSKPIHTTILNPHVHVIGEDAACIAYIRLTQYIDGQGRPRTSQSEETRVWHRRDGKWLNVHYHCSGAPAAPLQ
TYK2, sequence (P29597 whole entry): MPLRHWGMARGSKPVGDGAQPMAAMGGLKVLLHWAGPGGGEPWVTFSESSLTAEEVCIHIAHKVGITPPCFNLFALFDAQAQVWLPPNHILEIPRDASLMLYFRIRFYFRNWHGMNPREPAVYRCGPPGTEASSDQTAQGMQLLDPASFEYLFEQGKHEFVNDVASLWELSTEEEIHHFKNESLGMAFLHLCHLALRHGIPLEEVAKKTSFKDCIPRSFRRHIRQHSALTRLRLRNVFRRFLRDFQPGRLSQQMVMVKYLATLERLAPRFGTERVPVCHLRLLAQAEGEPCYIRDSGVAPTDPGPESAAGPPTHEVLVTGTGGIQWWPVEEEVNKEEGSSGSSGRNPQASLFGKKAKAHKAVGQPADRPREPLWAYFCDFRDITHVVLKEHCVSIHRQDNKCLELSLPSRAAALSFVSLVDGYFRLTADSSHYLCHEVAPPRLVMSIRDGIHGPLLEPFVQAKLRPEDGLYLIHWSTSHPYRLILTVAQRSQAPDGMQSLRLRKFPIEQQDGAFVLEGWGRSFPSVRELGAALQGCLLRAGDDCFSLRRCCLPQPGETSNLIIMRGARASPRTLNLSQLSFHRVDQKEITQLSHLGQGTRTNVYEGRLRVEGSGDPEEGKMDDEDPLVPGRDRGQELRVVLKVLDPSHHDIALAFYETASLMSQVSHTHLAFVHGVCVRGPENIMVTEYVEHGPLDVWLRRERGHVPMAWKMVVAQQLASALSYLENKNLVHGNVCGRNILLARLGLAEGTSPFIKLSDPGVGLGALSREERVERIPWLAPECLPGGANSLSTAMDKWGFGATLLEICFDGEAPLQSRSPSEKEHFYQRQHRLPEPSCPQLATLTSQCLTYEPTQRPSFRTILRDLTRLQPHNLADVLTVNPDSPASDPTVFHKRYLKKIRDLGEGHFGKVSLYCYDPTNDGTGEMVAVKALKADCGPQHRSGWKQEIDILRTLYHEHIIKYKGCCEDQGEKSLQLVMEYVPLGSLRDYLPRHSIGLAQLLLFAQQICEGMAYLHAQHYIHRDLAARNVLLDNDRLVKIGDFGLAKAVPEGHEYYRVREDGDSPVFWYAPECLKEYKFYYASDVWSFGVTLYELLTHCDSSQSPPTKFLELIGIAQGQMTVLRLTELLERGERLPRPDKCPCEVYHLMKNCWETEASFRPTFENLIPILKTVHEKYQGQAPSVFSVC

With `CS(=O)(=O)Nc1ccccc1Nc1nc(Nc2cccc(OCCN)c2)ncc1Cl` [CZC31326, N-(2-(2-(3-(2-aminoethoxy)phenylamino)-5-chloropyrimidin-4-ylamino)phenyl)methanesulfonamide], the inhibition at 10 µM in assay [1] was 75.9%; in assay [3], 91.3%; in assay [4], 97.5%. The Competition % in assay [2] turned out to be 96.9%.
